The text below walks through data of patent publication US20230021483A1, “[…] […] METHOD AND CLASSIFICATION OF PHARMACEUTICAL COMPONENTS BY USING TRANSCRIPTOMES” (National Institutes of Biomedical Innovation, Health and …, priority 2016, published 2023).

In one data set the test system is circulating blood cells. The data set is described as follows: Hematological cell count of peripheral blood 6 h after adjuvant administration (VetScan HMII). It counts as in vivo, C57BL/6 mice. As for the experimental part:
Take about 200 μL of blood from the retro-orbital venous plexus with a non-heparinized capillary tube and place the blood into a 1.5 mL tube comprising 2 μL of 10% EDTA-2K for hematological testing. Thoroughly mix the sample by gentle tapping. Stored at room temperature until hematological testing.
The hematological cell count was found using VetScan HMII (Abaxis). 50 μl of EDTA-2K blood sample was diluted by adding 250 μl of saline. Measurements are taken with VetScan HMII by following the instruction.
In a preliminary experiment, FCA and ALM were tested at different points up to 72 hours. […] At 6 hours after adjuvant administration, LV, SP, and LN (both sides) were removed to study the gene expression thereof by using Affimetrix Genechip microarray system (Affymetrix). The sampled organs were each placed in a tube containing RNAlater. The tube was maintained at 4° C. overnight, and stored at −80° C. until use. Blood was also collected after 6 hours from adjuvant administration for general hematological testing. About 200 μL of blood was taken from the retro-orbital venous plexus with a non-heparinized capillary tube and placed into a 1.5 mL tube comprising 2 μL of 10% EDTA-2K for hematological testing. The hematological cell count was found using VetScan HMII (Abaxis). 50 μl of EDTA-2K blood sample was diluted by adding 250 μl of saline. Measurements were taken with VetScan HMII by following the instruction.
The effect of adjuvant administration with respect to the changes in several hematological parameters was investigated. The following parameters were studied: white blood cells (WBC), lymphocytes (LYM), monocytes (MON), granulocytes (GRA), relative (%) content of lymphocytes (LY %), relative (%) content of monocytes (MO %), relative (%) content of granulocytes (GR %), red blood cells (RBC), hemoglobins (Hb, HGB), hematocrits (HCT), mean corpuscular volume (MCV), mean corpuscular hemoglobins (MCH), mean corpuscular hemoglobin concentration (MCHC), red blood cell distribution width (RDW), platelets (PLT), platelet concentration (PCT), mean platelet volume (MPV), and platelet distribution width (PDW).

The subject of another data set is spleen (SP). In words: Whole organ transcriptome (GeneChip microarray) of spleen 6 h after adjuvant administration: sDEGs, hierarchical clustering. For adjuvant group (cluster) in SP: key: G1 (interferon signaling); G2 (metabolism of lipids and lipoproteins); G3 (response to stress); G4 (response to wounding); G5 (phosphate-containing compound metabolic process); G6 (phagosome). The conditions noted are these: for adjuvant group (cluster) in SP: hierarchical clustering; for Number of gene probes with statistically significant changes (sDEGs), SP, Down: fold change <0.667, p<0.01, customized PA call=1, 6 h after adjuvant; for Number of gene probes with statistically significant changes (sDEGs), SP, Up: fold change >1.5, p<0.01, customized PA call=1, 6 h after adjuvant. In kind it is in vivo, C57BL/6 mice.

Setting [1] is: peripheral blood 6 h after administration.

Turning to `CC(O)COC[C@H]1O[C@@H]2O[C@H]3[C@H](O)[C@@H](O)[C@@H](O[C@H]4[C@H](O)[C@@H](O)[C@@H](O[C@H]5[C@H](O)[C@@H](O)[C@@H](O[C@H]6[C@H](O)[C@@H](O)[C@@H](O[C@H]7[C@H](O)[C@@H](O)[C@@H](O[C@H]8[C@H](O)[C@@H](O)[C@@H](O[C@H]1[C@H](O)[C@H]2O)O[C@@H]8COCC(C)O)O[C@@H]7COCC(C)O)O[C@@H]6COCC(C)O)O[C@@H]5COCC(C)O)O[C@@H]4COCC(C)O)O[C@@H]3COCC(C)O` (stereo partly drawn) [bCD, Hydroxypropyl-beta-cyclodextrin], the “monocytosis (monocytes in blood)” value in the data set with circulating blood cells (setting [1]) is recorded as “clearly induced”. Besides, in the data set with spleen (SP), the “adjuvant group (cluster) in SP” value is on record as “G2”. In the data set with spleen (SP) (i.d. administration), the “Number of gene probes with statistically significant changes (sDEGs), SP, Down” value stood at 59 and the “Number of gene probes with statistically significant changes (sDEGs), SP, Up” value is reported as 111. In the data set with spleen (SP) (i.p. administration), the “Number of gene probes with statistically significant changes (sDEGs), SP, Down” value was 5 and the “Number of gene probes with statistically significant changes (sDEGs), SP, Up” value was found to be 4.

In the case of “D35: A class CpG ODN (5′-GGTGCATCGATGCAGGGGGG-3′), TLR9 ligand (DNA GGTGCATCGATGCAGGGGGG; chemistry not given here)”, in the data set with spleen (SP) (i.d. administration), the “Number of gene probes with statistically significant changes (sDEGs), SP, Down” value amounted to 19 and the “Number of gene probes with statistically significant changes (sDEGs), SP, Up” value is listed as 23.

On to Monophosphoryl lipid A [MPLA], for which, in the data set on circulating blood cells (setting [1]), the “monocytosis (monocytes in blood)” value was “clearly induced”. In the data set on spleen (SP) (i.d. administration), the “Number of gene probes with statistically significant changes (sDEGs), SP, Down” value came to 22 and the “Number of gene probes with statistically significant changes (sDEGs), SP, Up” value turned out to be 9.

Turning to “K3: B class CpG ODN (ATCGACTCTCGAGCGTTCTC), TLR9 ligand (chemistry not given here)”, in the data set on spleen (SP) (i.d. administration), the “Number of gene probes with statistically significant changes (sDEGs), SP, Down” value was determined as 18 and the “Number of gene probes with statistically significant changes (sDEGs), SP, Up” value was 11. Further, in the data set on spleen (SP) (i.p. administration), the “Number of gene probes with statistically significant changes (sDEGs), SP, Down” value stood at 10 and the “Number of gene probes with statistically significant changes (sDEGs), SP, Up” value is listed as 24.

On to `Cc1ccc2c(=O)c3cccc(CC(=O)O)c3oc2c1C` [DMXAA, 5,6-dimethylxanthenone-4-acetic acid], for which the “adjuvant group (cluster) in SP” value with spleen (SP) was “G1”. Besides, in the data set with spleen (SP) (i.d. administration), the “Number of gene probes with statistically significant changes (sDEGs), SP, Down” value came to 48 and the “Number of gene probes with statistically significant changes (sDEGs), SP, Up” value was found to be 121.

With `CCOCc1nc2c(N)nc3ccccc3c2n1CC(C)(C)O` [R848, 4-amino-2-(ethoxymethyl)-a,a-dimethyl-1H-imidazo[4,5-c]quinoline-1-ethanol], in the data set with circulating blood cells (setting [1]), the leukopenia entry was “caused leukopenia” and the lymphopenia entry is reported as “strongly induced”. Besides, the “adjuvant group (cluster) in SP” value with spleen (SP) is given as “G1”.

Turning to `Nc1nc2c(ncn2[C@@H]2O[C@@H]3COP(=O)(O)O[C@H]4[C@@H](O)[C@H](n5cnc6c(=O)[nH]c(N)nc65)O[C@@H]4COP(=O)(O)O[C@H]3[C@H]2O)c(=O)[nH]1` [cdiGMP, Cyclic diguanylate monophosphate], in the data set with circulating blood cells (setting [1]), the “monocytosis (monocytes in blood)” value is “clearly induced”. Further, in the data set with spleen (SP), the “adjuvant group (cluster) in SP” value is on record as “G1”.

Turning to “heptanoyl-γ-D-glutamyl-(L)-meso-diaminopimelyl-(D)-alanine [FK565]”, in the data set with circulating blood cells (mouse, in vivo), the “granulocytosis (granulocytes in blood)” value was “caused granulocytosis”, the leukopenia entry is listed as “caused leukopenia” and the lymphopenia entry is reported as “strongly induced”. In addition, the “adjuvant group (cluster) in SP” value in the data set on spleen (SP) was “G3”. Moreover, in the data set with spleen (SP) (i.d. administration), the “Number of gene probes with statistically significant changes (sDEGs), SP, Down” value was determined as 624 and the “Number of gene probes with statistically significant changes (sDEGs), SP, Up” value was 1672.

As to `Nc1nc2c(ncn2[C@@H]2O[C@@H]3COP(=O)(O)O[C@H]4[C@@H](O)[C@H](n5cnc6c(N)ncnc65)O[C@@H]4COP(=O)(O)O[C@@H]2[C@@H]3O)c(=O)[nH]1` [cGAMP, Cyclic [G(2′,5′)pA(3′,5′)p]], the “monocytosis (monocytes in blood)” value with circulating blood cells (setting [1]) is listed as “clearly induced”. Besides, the “adjuvant group (cluster) in SP” value in the data set with spleen (SP) is “G1”. Moreover, in the data set on spleen (SP) (i.d. administration), the “Number of gene probes with statistically significant changes (sDEGs), SP, Down” value is 93 and the “Number of gene probes with statistically significant changes (sDEGs), SP, Up” value is 680.
